According to PubChem BioAssay (NCI):
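These data come from cells grown in 96-well plates and exposed to compound for 48 hours at five concentrations. The concentration for 50% growth inhibition is given as GI50. Definition used: TGI = concentration required for complete inhibition of growth.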

Legend:
Assay in all cases: NCI tumour cell line growth inhibition, 48 h
SF-268 CNS = test system: SF-268 CNS
T-47D breast = test system: T-47D breast
DU-145 prostate = test system: DU-145 prostate
A549 NSCLC = test system: A549 NSCLC
KM12 colon = test system: KM12 colon
RXF 393 renal = test system: RXF 393 renal
NCI/ADR-RES ovarian = test system: NCI/ADR-RES ovarian
OVCAR-5 ovarian = test system: OVCAR-5 ovarian
HCT-15 colon = test system: HCT-15 colon
HT29 colon = test system: HT29 colon

SMILES | TGI (SF-268 CNS) [µM] | TGI (T-47D breast) [µM] | TGI (DU-145 prostate) [µM] | TGI (A549 NSCLC) [µM] | TGI (KM12 colon) [µM] | TGI (RXF 393 renal) [µM] | TGI (NCI/ADR-RES ovarian) [µM] | TGI (OVCAR-5 ovarian) [µM] | TGI (HCT-15 colon) [µM] | TGI (HT29 colon) [µM] | GI50 (SF-268 CNS) [µM] | GI50 (T-47D breast) [µM] | GI50 (DU-145 prostate) [nM] | GI50 (A549 NSCLC) [nM] | GI50 (KM12 colon) [nM] | GI50 (RXF 393 renal) [µM] | GI50 (NCI/ADR-RES ovarian) [µM] | GI50 (OVCAR-5 ovarian) [µM] | GI50 (HCT-15 colon) [nM] | GI50 (HT29 colon) [nM]
C=CC(COC(=O)C(C)(C)OC(C)=O)c1ccc(OC(=O)C(C)C)c(OC)c1 (centres undefined) | > 43.9 | > 37.2 | 25.9 | 47.5 | 15.5 | 19.7 | > 84.9 | 32.5 | 4.88 | > 36.1 |  |  |  |  |  |  |  |  |  | 
O=C1/C=C/[C@@H](O)[C@@H]2C[C@@H](O)C[C@H]2/C=C/CCC[C@H](CCc2ccc3ncccc3c2)O1 | > 100 | 8.1 | > 100 | > 57.9 |  | 0.419 | 9.05 | > 100 | 14.5 | 0.555 | 0.322 | 0.312 | 564 | 308 | 175 | 0.0945 | 0.396 | 0.42 | 337 | 90.5
CN(C)C(=O)OCc1nc2c(N3CCOCC3)nc(-c3ccccc3)nc2n1C | 2.77 | 4.62 | 2.28 | 3.75 | 3.32 | 1.68 | 6.53 | 3.26 | 0.561 | 1.78 | 1.39 | 1.85 | 1050 | 1560 | 1540 | 0.566 | 1.59 | 1.6 | 220 | 476
Cc1cc(-c2nnc(/C=C/c3ccc4c(c3)OCO4)o2)n[nH]1 | > 50 | > 50 | 29.4 | > 50 | > 50 | > 50 | 21.4 | > 50 | > 50 | 43.4 | 6.5 | 22 | 9170 | 21400 | 2150 | 20.9 | 7.33 | 38.5 | 11400 | 13800
CCCCCCCCCCCCCCCCCCNCc1ccc(Cl)cc1 | 18.2 | 24.9 | 4.44 | 5.65 | 6.54 | 15.8 | 18.2 | 12.1 | 4.71 | 3.46 | 3.82 | 4.28 | 2060 | 2520 | 2500 | 3.39 | 3.58 | 2.65 | 1930 | 1730
Cc1cc(C(=O)Nc2n[nH]c3ccccc23)n[nH]1 | > 100 | > 100 | > 100 | > 100 | > 100 | > 100 | > 100 | > 100 | > 100 | > 100 | > 100 | > 100 | > 100000 | > 100000 | 28900 | > 100 | > 100 | 67.9 | > 100000 | > 100000
O=C(O)c1cc2ccccc2c2c3c(ccc12)OCO3 | 580 | 750 | > 1000 | 621 | 702 | 342 | 754 | > 1000 | > 1000 | 791 | 188 | 209 | 303000 | 197000 | 219000 | 146 | 210 | 279 | 245000 | 281000
